According to publication PMC4941420, “A Rational Approach for the Identification of Non-Hydroxamate HDAC6-Selective Inhibitors” (Scientific Reports, 2016):

Assays:
HDAC2 = molecular target: T1, HDAC2 (Homo sapiens, UniProt Q92769); assay: In vitro enzymatic assay HDAC2 (Fluor de Lys); format: biochemical; details: average of at least 2 independent experiments in duplicates ± SEM
T1 construct: purchased Sigma Aldrich or Reaction Biology Corporation

[1] = tested on: class I HDACs (HeLa nuclear extracts); assay: HDAC activity of HeLa nuclear extracts (Fluor de Lys); format: biochemical, human; details: 100 μM, average of at least 3 independent experiments in duplicates (Table 1)
[2] = tested on: histone H4 acetylation in HeLa cells; assay: Acetyl histone H4 Western blotting in HeLa cells; format: cell-based, human; details: 500 μM, 6 h
Description: The acetyl-α-tubulin sandwich ELISA Kit (Pathscan® #7204, Cell Signalling) was used to determine tubulin acetylation levels, and Western blotting was used to evaluate histone H4 acetylation, both methods applied to lysates of treated and non-treated HeLa cells (ATCC CCL-2). Cells were cultured in DMEM medium, 4.5 g/L glucose, L-glutamine (Invitrogen), supplemented with 10% heat-inactivated fetal bovine serum (FBS, Biowest), 100 units/mL penicillin, and 100 μg/mL streptomycin, and 1% non-essential amino acids (Invitrogen) at 37 °C with 5% CO2. Prior to ELISA experiments, cells were seeded into 6-well plates at 150,000 cells/well and transfected with the HDAC6-GFP construct (pEGFP.N1-HDAC6, Addgene)[58], using the Lipofectamine 2000 reagent (Invitrogen). Cells were then treated with test compounds, standards or vehicle (0.5% DMSO in culture medium) for 48 h. After the incubation time, cells were washed with cold DPBS (Invitrogen) and lysates were obtained by recovering cells in cold lysis buffer provided in the ELISA kit, supplemented with a protease inhibitor tablet (SigmaFast, Sigma Aldrich). Briefly, cells were harvested in DPBS and centrifuged. The cell pellet was suspended in 100 μL lysis buffer, vortexed, and kept on melting ice for 30 min. […] Protein concentration was determined by fluorimetry using the Qubit protein assay kit (Invitrogen). […]

HDAC8 = molecular target: T2, HDAC8 (Homo sapiens, UniProt Q9BY41); assay: In vitro enzymatic assay HDAC8 (Fluor de Lys); format: biochemical; details: average of at least 2 independent experiments in duplicates ± SEM
T2 construct: purchased Sigma Aldrich or Reaction Biology Corporation
T2 sequence (Q9BY41 1-377): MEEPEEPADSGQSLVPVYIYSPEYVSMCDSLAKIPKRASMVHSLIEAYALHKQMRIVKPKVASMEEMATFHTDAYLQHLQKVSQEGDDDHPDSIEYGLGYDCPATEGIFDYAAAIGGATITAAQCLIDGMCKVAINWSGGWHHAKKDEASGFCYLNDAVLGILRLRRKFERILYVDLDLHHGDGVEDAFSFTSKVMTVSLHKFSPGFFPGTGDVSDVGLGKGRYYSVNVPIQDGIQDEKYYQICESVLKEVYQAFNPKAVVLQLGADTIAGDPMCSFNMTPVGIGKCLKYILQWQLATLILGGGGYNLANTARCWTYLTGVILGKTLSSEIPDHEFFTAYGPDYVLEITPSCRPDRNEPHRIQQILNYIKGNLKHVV

PAMPA-BBB = format: in vitro ADME
Description: The PAMPA experiment was performed according to the PAMPA-BBB method described by Di et al.[46]. Test compounds were dissolved at 20 mM in DMSO and then diluted 200 times using a buffer solution at pH 7.4 (prepared according to the Geigy table, containing 54 mM Na2HPO4 and 13 mM KH2PO4). The resulting solutions, containing the compounds at 100 μM (0.5% DMSO), represented the donor solutions at the initial time. A total of 280 μL of the donor solution were added in each well of a Teflon® 96-well microplate (Millipore MSSACCEPTOR) forming the donor compartments. Each well of a hydrophobic polyvinylidene fluoride (PVDF) 96-well microtitre filter plate (Multiscreen® MAIPN4550, 70% porosity, pore diameter 0.45 μm, cross-sectional area 0.3 cm^2) was impregnated with 4 μL of a polar brain lipids solution (20 mg/mL in dodecane, PBL obtained from Avanti Polar Lipids), placed under a fume hood and subjected to constant shaking at 75 rpm for approximately 10 min to homogeneously lay the artificial membrane. […] Each tested compound was analysed in triplicate. The effective passive permeability value (Pe) was calculated according the two-way flux equations, obtained from the Fick’s law[47]. The calculated effective passive permeability values Pe were considered relevant only if RSD < 15% as quality control was fulfilled. […]

T1 sequence (Q92769 whole entry): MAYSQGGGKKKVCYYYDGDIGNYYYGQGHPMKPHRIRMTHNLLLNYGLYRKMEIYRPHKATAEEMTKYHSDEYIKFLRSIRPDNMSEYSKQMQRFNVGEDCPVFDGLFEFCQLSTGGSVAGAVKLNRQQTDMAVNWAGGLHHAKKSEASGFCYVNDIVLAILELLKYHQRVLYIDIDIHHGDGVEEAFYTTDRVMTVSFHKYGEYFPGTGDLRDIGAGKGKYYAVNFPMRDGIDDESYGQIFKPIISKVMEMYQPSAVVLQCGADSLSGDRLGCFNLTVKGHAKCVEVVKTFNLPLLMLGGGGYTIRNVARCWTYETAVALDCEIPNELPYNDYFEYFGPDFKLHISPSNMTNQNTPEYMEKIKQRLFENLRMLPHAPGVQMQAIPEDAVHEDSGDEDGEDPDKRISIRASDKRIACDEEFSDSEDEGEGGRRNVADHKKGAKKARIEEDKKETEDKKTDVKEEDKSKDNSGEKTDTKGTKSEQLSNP

For `NNC(=O)c1ccc(COc2ccccc2Cl)cc1` [AK-14], the IC50 (HDAC2) was greater than 1000 µM, the “HeLa % of inhibition at 100 μM” value [1] was 2.7 ± 1.3% and the “acetylation profile of histone H4” value [2] was “did not change”. For the same compound, the IC50 (HDAC8) was greater than 300 µM, the Papp at 18 h, 100 μM (PAMPA-BBB; PAMPA, pH 7.4, 100 μM donor, 18 hours, room temperature, read-out: effective passive permeability Pe (PAMPA-BBB)) was 6.5 ×10⁻⁶ cm/s and the PAMPA-BBB classification (PAMPA-BBB; pH 7.4) was “CNS +”.
